Active and inactive are the calls of the source. The calls are words filed in the database; no cut-off is given here.

Assay [1] has as its system NB-4. Put plainly: Cell cycle arrest in human NB4 cells assessed as accumulation of cells at G2/M phase at 1 uM incubated for 12 hrs by DAPI staining based flow cytometric analysis (reference value: 26 %). The class given is functional.
For assay [2], the system named is NB-4. Nature of the assay: Cell cycle arrest in human NB4 cells assessed as accumulation of cells at S phase at 1 uM incubated for 12 hrs by DAPI staining based flow cytometric analysis (reference value: 20 %). Format: functional.
For assay [3], the system named is NB-4. Put plainly: Cell cycle arrest in human NB4 cells assessed as accumulation of cells at G0/G1 phase at 0.5 uM incubated for 6 days for DAPI staining based flow cytometric analysis (reference value: 52 %). The class given is functional. The note with it: time 6 day.
Assay [4] deals with K562. Nature of the assay: Induction of cell differentiation in human K562 cells at 0.5 uM incubated for 6 days by CD11b staining based flow cytometric analysis. The class given is functional. The note with it: time 6.0 day.
Assay [5] relates to K562. Put plainly: Effect on cell cycle population in human K562 cells at 0.5 uM by DAPI staining based flow cytometric analysis. Format: functional.
The test system of assay [6] is K562. Put plainly: Induction of apoptosis in human K562 cells assessed as early apoptotic cells at 2 uM incubated for 24 hrs by Annexin V-FITC/PI staining based flow cytometric analysis (reference value: 0.91 %). The class given is functional.
Assay [7] can be described thus: Cell cycle arrest in human ATRA-resistant NB4-LR2 cells assessed as accumulation of cells at S phase at 1 uM incubated for 12 hrs by DAPI staining based flow cytometric analysis (reference value: 12 %). The class given is functional.
Assay [8] relates to NB-4. Put plainly: Induction of cell differentiation in human NB4 cells at 0.5 uM incubated for 4 to 6 days by CD11b staining based flow cytometric analysis. The note with it: time 4-6 day. Format: functional.
For assay [9], the system named is NB-4. Put plainly: Cell cycle arrest in human NB4 cells assessed as accumulation of cells at sub-G1 phase at 0.5 uM incubated for 6 days for DAPI staining based flow cytometric analysis (reference value: 6 %). The class given is functional. The note with it: time 6 day.
Assay [10] deals with NB-4. Put plainly: Induction of apoptosis in human NB4 cells assessed as early apoptotic cells at 1 uM incubated for 24 hrs by Annexin V-FITC/PI staining based flow cytometric analysis (reference value: 4.37 %). Format: functional.
A short description of assay [11]: Cell cycle arrest in human ATRA-resistant NB4-LR2 cells assessed as accumulation of cells at G0/G1 phase at 1 uM incubated for 12 hrs by DAPI staining based flow cytometric analysis (reference value: 42 %). The class given is functional.
In assay [12] the test system is NB-4. Nature of the assay: Cell cycle arrest in human NB4 cells assessed as accumulation of cells at S phase at 0.5 uM incubated for 6 days for DAPI staining based flow cytometric analysis (reference value: 27 %). Format: functional. The settings on record: time 6 day.
For assay [13], the system named is NB-4. Put plainly: Cell cycle arrest in human NB4 cells assessed as accumulation of cells at G2/M phase at 0.5 uM incubated for 6 days for DAPI staining based flow cytometric analysis (reference value: 15 %). Format: functional. The settings on record: time 6 day.
Assay [14] concerns NB-4. Nature of the assay: Induction of apoptosis in human NB4 cells assessed as late apoptotic cells at 1 uM incubated for 24 hrs by Annexin V-FITC/PI staining based flow cytometric analysis (reference value: 3.20 %). Format: functional.
Assay [15] concerns NB-4. Nature of the assay: Antiproliferative activity against human NB4 cells assessed as inhibition of cell viability at 0.1 uM incubated for 3 days by CCK8 assay relative to control. The note with it: NB-4, 72 h, time 3 day. The class given is functional.
The next assay concerns ATRA-resistant NB4-LR2. Put plainly: Antiproliferative activity against human ATRA-resistant NB4-LR2 cells assessed as effect on cell viability up to 2 uM incubated for 3 days by CCK8 assay. Format: functional, cell-based. The settings on record: time 3.0 day.
Assay [16] in a line: Cell cycle arrest in human ATRA-resistant NB4-LR2 cells assessed as accumulation of cells at G2/M phase at 1 uM incubated for 12 hrs by DAPI staining based flow cytometric analysis (reference value: 28 %). The class given is functional.
Assay [17] deals with K562. Nature of the assay: Induction of apoptosis in human K562 cells assessed as viable cells at 2 uM incubated for 24 hrs by Annexin V-FITC/PI staining based flow cytometric analysis (reference value: 90.02 %). Format: functional. The note with it: read-out: Activity.
Assay [18] concerns the target T1, Retinoic acid receptor gamma (Homo sapiens) (UniProt P13631).
T1 sequence (whole entry): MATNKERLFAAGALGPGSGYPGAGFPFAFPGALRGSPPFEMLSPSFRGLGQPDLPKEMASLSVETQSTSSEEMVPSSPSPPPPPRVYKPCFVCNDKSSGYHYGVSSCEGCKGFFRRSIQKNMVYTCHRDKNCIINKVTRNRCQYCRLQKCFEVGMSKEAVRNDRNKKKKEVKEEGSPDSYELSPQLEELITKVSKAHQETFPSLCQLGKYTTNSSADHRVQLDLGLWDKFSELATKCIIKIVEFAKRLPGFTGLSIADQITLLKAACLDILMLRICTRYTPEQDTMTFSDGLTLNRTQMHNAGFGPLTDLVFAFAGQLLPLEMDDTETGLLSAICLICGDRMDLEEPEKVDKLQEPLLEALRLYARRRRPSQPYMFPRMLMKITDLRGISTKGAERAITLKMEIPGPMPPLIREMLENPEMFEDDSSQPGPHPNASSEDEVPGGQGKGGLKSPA
Put plainly: Agonist activity at Gal4-fused full length human RARgamma LBD transfected in HEK293T cells co-transfected with pG5luc reporter and Renilla-luc assessed as transactivation by measuring maximal efficacy incubated for 12 hrs by dual luciferase reporter gene assay relative to control. The settings on record: filed as agonist. The class given is cell-based.

In the next assay the test system is HEK293T. Put plainly: Agonist activity at full length RARalpha LBD R276E mutant (unknown origin) transfected in HEK293T cells co-transfected with pG5luc reporter and Renilla-luc at 1 uM incubated for 12 hrs by luciferase reporter gene assay. Format: cell-based. The note with it: Homo sapiens, filed as agonist.
The subject of assay [19] is NB-4. Nature of the assay: Induction of apoptosis in human NB4 cells assessed as necrotic cells at 1 uM incubated for 24 hrs by Annexin V-FITC/PI staining based flow cytometric analysis (reference value: 0.07 %). The class given is functional.
In assay [20] the test system is K562. Nature of the assay: Induction of apoptosis in human K562 cells assessed as necrotic cells at 2 uM incubated for 24 hrs by Annexin V-FITC/PI staining based flow cytometric analysis (reference value: 2.19 %). The class given is functional.
The test system of assay [21] is NB-4. Nature of the assay: Induction of apoptosis in human NB4 cells assessed as viable cells at 1 uM incubated for 24 hrs by Annexin V-FITC/PI staining based flow cytometric analysis (reference value: 92.36 %). Format: functional. The settings on record: read-out: Activity.
Assay [22] relates to NB-4. Nature of the assay: Induction of cell death in M phase synchronized human NB4 cells assessed as reduction in mitotic cells at 0.5 uM preincubated for 4 days followed by release from thymidine block for 10 hrs by immunofluorescence staining based analysis. The class given is functional. The settings on record: time 106.0 hrs.
The nature of assay [23]: Induction of apoptosis in human ATRA-resistant NB4-LR2 cells assessed as late apoptotic cells at 1 uM incubated for 24 hrs by Annexin V-FITC/PI staining based flow cytometric analysis (reference value: 7.23 %). The class given is functional.
Assay [24] in a line: Induction of apoptosis in human ATRA-resistant NB4-LR2 cells assessed as necrotic cells at 1 uM incubated for 24 hrs by Annexin V-FITC/PI staining based flow cytometric analysis (reference value: 0.08 %). The class given is functional.
The nature of assay [25]: Cell cycle arrest in human ATRA-resistant NB4-LR2 cells assessed as accumulation of cells at sub-G1 phase at 1 uM incubated for 12 hrs by DAPI staining based flow cytometric analysis (reference value: 18 %). Format: functional.
The subject of assay [26] is K562. Put plainly: Induction of apoptosis in human K562 cells assessed as late apoptotic cells at 2 uM incubated for 24 hrs by Annexin V-FITC/PI staining based flow cytometric analysis (reference value: 5.98 %). Format: functional.
The species named for the next assay is Homo sapiens. Put plainly: Binding affinity to N-terminal His-tagged human RARalpha LBD R276E mutant extracted from Escherichia coli BL21 (DE3) cells by ITC analysis.
Another assay deals with Jurkat. Put plainly: Induction of cell differentiation in human Jurkat cells at 0.5 uM incubated for 6 days by CD11b staining based flow cytometric analysis. The class given is functional. The note with it: time 6.0 day.
Assay [27] in a line: Induction of apoptosis in human ATRA-resistant NB4-LR2 cells assessed as viable cells at 1 uM incubated for 24 hrs by Annexin V-FITC/PI staining based flow cytometric analysis (reference value: 87.30 %). The note with it: read-out: Activity. The class given is functional.
Assay [28] concerns NB-4. Put plainly: Cell cycle arrest in human NB4 cells assessed as accumulation of cells at G0/G1 phase at 1 uM incubated for 12 hrs by DAPI staining based flow cytometric analysis (reference value: 51 %). The class given is functional.
The test system of assay [29] is NB-4. Put plainly: Cell cycle arrest in human NB4 cells assessed as accumulation of cells at sub-G1 phase at 1 uM incubated for 12 hrs by DAPI staining based flow cytometric analysis (reference value: 2 %). Format: functional.
Assay [30] has as its system NB-4. Put plainly: Induction of cell differentiation in human NB4 cells assessed as NBT positive cells at 0.5 uM incubated for 6 days by Nitro Blue tetrazolium chloride based microscopic analysis (reference value: 0 %). Format: functional. The note with it: time 6 day.
A short description of assay [31]: Induction of apoptosis in human ATRA-resistant NB4-LR2 cells assessed as early apoptotic cells at 1 uM incubated for 24 hrs by Annexin V-FITC/PI staining based flow cytometric analysis (reference value: 5.38 %). The class given is functional.
A short description of assay [32]: Induction of apoptosis in human ATRA-resistant NB4-LR2 cells assessed as early apoptotic cells at 5 uM incubated for 24 hrs by Annexin V-FITC/PI staining based flow cytometric analysis (reference value: 5.38 %). Format: functional.
For assay [33], the system named is NB-4. Put plainly: Induction of apoptosis in human NB4 cells assessed as viable cells at 5 uM incubated for 24 hrs by Annexin V-FITC/PI staining based flow cytometric analysis (reference value: 92.36 %). Format: functional. The note with it: read-out: Activity.
For assay [34], the system named is NB-4. Nature of the assay: Induction of apoptosis in human NB4 cells assessed as late apoptotic cells at 5 uM incubated for 24 hrs by Annexin V-FITC/PI staining based flow cytometric analysis (reference value: 3.20 %). Format: functional.
Assay [35] in a line: Induction of apoptosis in human ATRA-resistant NB4-LR2 cells assessed as late apoptotic cells at 5 uM incubated for 24 hrs by Annexin V-FITC/PI staining based flow cytometric analysis (reference value: 7.23 %). Format: functional.
The nature of assay [36]: Induction of apoptosis in human ATRA-resistant NB4-LR2 cells assessed as viable cells at 5 uM incubated for 24 hrs by Annexin V-FITC/PI staining based flow cytometric analysis (reference value: 87.30 %). The settings on record: read-out: Activity. Format: functional.
Assay [37] is described as follows: Induction of apoptosis in human ATRA-resistant NB4-LR2 cells assessed as necrotic cells at 5 uM incubated for 24 hrs by Annexin V-FITC/PI staining based flow cytometric analysis (reference value: 0.08 %). The class given is functional.
In assay [38] the test system is NB-4. Nature of the assay: Induction of apoptosis in human NB4 cells assessed as early apoptotic cells at 5 uM incubated for 24 hrs by Annexin V-FITC/PI staining based flow cytometric analysis (reference value: 4.37 %). The class given is functional.
Assay [39] has as its system NB-4. Nature of the assay: Induction of apoptosis in human NB4 cells assessed as necrotic cells at 5 uM incubated for 24 hrs by Annexin V-FITC/PI staining based flow cytometric analysis (reference value: 0.07 %). Format: functional.

Turning to `CC1=C(/C=C/C(C)=C/C=C/C(C)=C/C(=O)O)C(C)(C)CCC1` [TRETINOIN], the Activity in the assay with NB-4 [1] was found to be 23%; in the assay on NB-4 [2], 10%; in the assay on NB-4 [3], 64%; in the assay with K562 [6], 1.04%; in [7] it was 11%; in the assay on NB-4 [9], 3%. The Activity is 3.11% in the assay on NB-4 [10]; 43% in [11]; 17% with NB-4 [12]; 16% with NB-4 [13]; 6.37% in the assay on NB-4 [14]; 27% in assay [16]. Also, the Activity result with HEK293T was “Active; Partial Impairment Observed”; in the assay on NB-4 [19], 0.13%; with K562 [20], 2.01%; in assay [23], 7.92%; in [24], 0.08%; in [25], 19%. Besides, the Activity is on record as 6.84% with K562 [26]; 65% in the assay on NB-4 [28]; 2% in the assay on NB-4 [29]; 33% in the assay on NB-4 [30]; 3.39% in assay [31]. The outcome with K562 [4], in the assay on K562 [5], in the assay with ATRA-resistant NB4-LR2, in the assay listed under Homo sapiens and in the assay with Jurkat was inactive. The result in the assay with NB-4 [8] and with NB-4 [22] was Active. Moreover, the inhibition at 0.1 µM in the assay with NB-4 [15] was approximately 40%. Besides, the viability at 2 µM with K562 [17] came out at 89.5%. Also, in assay [18], the Emax stood at 100%. Further, the values for the viability at 1 µM (with NB-4 [21]; in assay [27]) were 90.4% and 88.6%, respectively.
As to `O=[N+]([O-])/C=C/c1cccc2ccccc12`, the Activity turned out to be 28.83% in assay [32]; 11.26% in the assay with NB-4 [34]; 28.61% in [35]; 0.29% in assay [37]; 9.62% in the assay with NB-4 [38]; 0.48% in the assay on NB-4 [39]. The viability at 5 µM came out at 78.6% in the assay with NB-4 [33] and 42.3% in assay [36].

The values above are taken from ChEMBL document CHEMBL6134780, “Halogenated retinoid derivatives as dual RARα and RXRα modulators for treating acute promyelocytic leukemia cells” (Eur J Med Chem, 2024).
